The structures appear in SMILES notation. Read-outs that look alike come from different tables or passages of the source.

The nature of the data set: pKa values by non-aqueous titration (half neutralization potential). The class given is physicochemical. The conditions noted are these: for HPN: 1:1 acetonitrile:chloroform, 0.1N perchloric acid/dioxane titrant. As for the experimental part:
In order to determine the pKa values of water insoluble materials, organic references with known pKa values in water are titrated non-aqueously. A plot of the half neutralization potential (HNP) versus the known aqueous pKa value of the reference material is established. The HNP of the test material is determined and extrapolated to find the corresponding pKa value of the test material. Such organic reference materials include 2,2,6,6-tetrarnethylpiperidine; 4-hydroxy-2,2,6,6-tetramethylpiperidine; 1-hydroxyethyl-4-hydroxy-2,2,6,6-tetramethylpiperidine; triacetoneamine and N-methylaniline.
The reference materials, which are structurally at least peripherally related to the instant test materials and are soluble in both water and 1:1 acetonitrile:chloroform, are used to make a calibration plot in the non-aqueous titration (1:1 acetonitrile:chloroform solvent and 0.1N perchloric acid/dioxane titrant) system. Approximately 0.5 milliequivalents of test material is weighed into a titration beaker. Thirty mL of acetonitrile is added to dissolve the sample. Prior to titration, 30 mL of chloroform is added. Titration is carried out and the HNP is determined. The electrolyte for the reference electrode is 2-(aminomethylpyridine. The electrode is allowed to stand in the solvent system for two hours after filling with the electrolyte to achieve equilibration. All samples are run in duplicate. The pKa values are seen in the table below.

Where [1] appears, read: extrapolated from HNP versus known aqueous pKa of reference materials, read-out: Calculated pKa.
The mark [2] stands for this setting: pKa of the test hindered amine contained in the formulation, read-out: HALS pKa.
Where [3] appears, read: extrapolated from HNP versus known aqueous pKa of reference materials.

What is called pKa is the pH at which an ionisable group is half protonated. Compound `CCCCCCCCCCCCCCCCCC(=O)OC1CC(C)(C)N(OCC(C)(C)O)C(C)(C)C1` [Example 73, 1-(2-Hydroxy-2-methylpropoxy)-4-octadecanoyloxy-2,2,6,6-tetramethylpiperidine] showed an HPN of 523 mv. Moreover, the pKa under setting [1] is 3.9. Besides, under setting [2], the pKa was 4.
As for `CC1(C)CC(OC(=O)CCCCCCCCC(=O)OC2CC(C)(C)NC(C)(C)C2)CC(C)(C)N1` [TINUVIN® 770, bis(2,2,6,6-tetramethylpiperidin-4-yl) sebacate], under setting [2], the pKa turned out to be 9.1.
As to `CC(C)(O)CON1C(C)(C)CC(OC(=O)CCCCCCCCC(=O)OC2CC(C)(C)N(OCC(C)(C)O)C(C)(C)C2)CC1(C)C` [Example 2], the HPN worked out at 513 mv. In addition, under setting [3], the “Calculated pKa” value is 3.8.
In the same order, the values of `CCCCCCCCCCCCCCCCCC(=O)OC1CC(C)(C)N(OC2CCCCC2)C(C)(C)C1` [II, 1-cyclohexyloxy-4-ocatadecanoyloxy-2,2,6,6-tetramethylpiperidine] are 436 mv and 4.9.
As to `CCCCCCCCON1C(C)(C)CC(OC(=O)CCCCCCCCC(=O)OC2CC(C)(C)N(OCCCCCCCC)C(C)(C)C2)CC1(C)C` [TINUVIN® 123, bis(1-octyloxy-2,2,6,6-tetramethylpiperidin-4-yl) sebacate], the pKa by setting is: under setting [1], 4.6; under setting [2], 4.6.

(Values after patent US6376584B1, “Hydroxy-substituted N-alkoxy hindered amines and compositions stabilized therewith” (Ciba Specialty Chemicals Corporation, priority 1999, dated 2002).)
